Legend:
[1] = biological target: 11b-HSD1 (Homo sapiens, UniProt P28845); assay: Enzymatic assay, 11b-HSD1 reductase activity (conversion of cortisone into cortisol); assay type: biochemical; details: pIC50 scored 1-3, read-out: [C1] HSD1-prot Reduct Score
Protocol: The effects of compounds on 11b-HSD1 dependent conversion of cortisone into cortisol (reductase activity) was studied in a reaction mixture containing 30 mM Tris-HCl buffer pH 7.2, 180 μM NADPH, 1 mM EDTA, 2 μM cortisone, 1 μl drug and/or solvent and 11 μg recombinant protein in a final volume of 100 μl.
(§1) All incubations were performed for 45 min at 37 C in a water bath. The reaction was stopped by adding 100 μl acetonitrile containing 20 μg corticosterone as internal standard. After centrifugation, the product formation was analysed in the supernatant by HPLC on a Hypersyl BDS-C18 column using 0.05 mM ammonium acetate/methanol (50/50) as solvent. In all of the aforementioned assays, the drugs to be tested were taken from a stock solution and tested at a final concentration ranging from […] to 3.10^−9M. From the thus obtained dose response curves, the pIC50 value was calculated and scored as follows; Score 1=pIC50 value<5, Score 2=pIC50 value in the range of 5 to 6, Score 3=pIC50 value>6. (in this table NT stands for Not Tested).

[2] = biological target: T1, 11b-HSD1 (Mus musculus, UniProt P50172); assay: Cellular assay, 11b-HSD1 activity in differentiated 3T3-L1 cells; assay type: cell-based; details: 4 hour pre-incubation, pIC50 scored 1-3, read-out: [C2] HSD1 cellular 3T3-L1 Score
T1 construct: endogenous in cells; host or cells: 3T3-L1 (ATCC-CL-173), differentiated into adipocytes
Protocol: The effects on 11b-HSD1 activity was measured in differentiated 3T3-L1 cells and rat hepatocytes.
Mouse fibroblast 3T3-L1 cells (ATCC-CL-173) were seeded at a density of 16500 cells/ml in 12 well plates and grown for 7 days in DMEM medium (supplemented with 10% heat inactivated foetal calf serum, 2 mM glutamine and 25 mg gentamycin) at 37 C in a humidified 5% CO2 atmosphere. Medium was refreshed twice a week. Fibroblasts were differentiated into adipocytes at 37 C in a 5% CO2 humidified atmosphere in growth medium containing 2 μg/ml insulin, 55 μg/ml IBMX and 39.2 μg/ml dexamethasone.
Following a 4 hour pre-incubation with test compound, 0.5 μCi ^3H-cortisone or dehydrocorticosterone, was added to the cultures. One hour later, the medium was extracted on Extrelut^3-columns with 15 ml diethyl ether and the extract was analysed by HPLC as described above.
(§2) As for the enzymatic assays, the compounds to be tested were taken from a stock solution and tested at a final concentration ranging from […] to 3.10^−9M. From the thus obtained dose response curves, the pIC50 value was calculated and scored as follows; Score 1=pIC50 value<5, Score 2=pIC50 value in the range of 5 to 6, Score 3=pIC50 value>6. (in this table NT stands for Not Tested).

[3] = biological target: T2, 11b-HSD2 (Homo sapiens, UniProt P80365); assay: Cellular assay, 11b-HSD2 activity in HepG2 cells; assay type: cell-based; design: endogenous in cells; host or cells: HepG2 (ATCC HB-8065); details: 4 hour pre-incubation, pIC50 scored 1-3, read-out: [C2] HSD2 cellular HepG2 Score
T2 sequence (P80365 1-405): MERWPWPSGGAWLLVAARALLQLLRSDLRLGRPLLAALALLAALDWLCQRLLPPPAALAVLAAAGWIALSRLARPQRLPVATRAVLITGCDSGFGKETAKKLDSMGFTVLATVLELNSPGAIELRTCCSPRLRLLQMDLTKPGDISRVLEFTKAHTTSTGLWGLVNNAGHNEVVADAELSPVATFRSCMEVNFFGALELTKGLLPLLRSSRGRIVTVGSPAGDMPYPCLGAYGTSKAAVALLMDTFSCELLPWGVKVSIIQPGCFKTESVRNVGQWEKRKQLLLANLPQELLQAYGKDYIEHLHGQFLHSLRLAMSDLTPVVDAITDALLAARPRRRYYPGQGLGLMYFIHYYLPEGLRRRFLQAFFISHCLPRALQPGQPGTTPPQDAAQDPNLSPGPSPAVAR
Protocol: The effects on 11b-HSD2 activity was studied in HepG2 and LCC-PK1-cells HepG2-cells (ATCC HB-8065) were seeded in 12 well plates at a density of 100,000 cells/ml and grown at 37 C in a humidified 5% CO2 atmosphere in MEM-Rega-3 medium supplemented with 10% heat inactivated foetal calf serum, 2 mM L-glutamine and sodium bicarbonate). Medium was refreshed twice a week. Pig kidney cells (LCC-PK1, ATCC CRL-1392) were seeded at a density of 150,000 cells/ml in 12 well plates and grown at 37 C in a humidified 5% CO2 atmosphere in Medium 199 supplemented with Earls modified salt solution, 100 U/ml penicillin, 100 μg/ml streptomycin and 10% foetal calf serum. Medium was refreshed twice a week. Twenty four hours prior to the onset of the experiment, medium was changed by medium containing 10% charcoal stripped foetal calf serum.
Following a 4 hour pre-incubation with test compound, 0.5 μCi ^3H-cortisol or corticosterone, was added to the cultures. One hour later, the medium was extracted on Extrelut^3-columns with 15 ml diethyl ether and the extract was analysed by HPLC as described above.
as §2

[4] = biological target: T2, 11b-HSD2; assay: Enzymatic assay, 11b-HSD2 dependent dehydrogenase activity; assay type: biochemical; details: 11b-HSD2 dehydrogenase activity, pIC50 scored 1-3, read-out: [C1] HSD2 prot Dehydro Score
Protocol: The effects on the 11b-HSD2 dependent dehydrogenase activity was studied in a reaction mixture containing 0.1M sodium phosphate buffer pH 7.5, 300 μM NAD, 100 nM cortisol (of which 2 nM is 3H-radio labelled), 1 μl drug and/or solvent and 2.5 μg recombinant protein in a final volume of 100 μl.
as §1

T1 sequence (P50172 whole entry): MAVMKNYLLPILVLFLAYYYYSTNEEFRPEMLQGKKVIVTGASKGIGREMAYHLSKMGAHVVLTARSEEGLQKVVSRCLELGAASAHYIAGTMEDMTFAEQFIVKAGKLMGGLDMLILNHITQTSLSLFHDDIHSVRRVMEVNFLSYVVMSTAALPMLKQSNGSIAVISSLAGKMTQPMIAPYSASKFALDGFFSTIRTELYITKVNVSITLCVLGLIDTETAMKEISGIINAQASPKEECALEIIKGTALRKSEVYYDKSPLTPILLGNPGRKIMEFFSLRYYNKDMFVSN
Chain of 11b-HSD1 (Homo sapiens, UniProt P28845) (P28845 whole entry): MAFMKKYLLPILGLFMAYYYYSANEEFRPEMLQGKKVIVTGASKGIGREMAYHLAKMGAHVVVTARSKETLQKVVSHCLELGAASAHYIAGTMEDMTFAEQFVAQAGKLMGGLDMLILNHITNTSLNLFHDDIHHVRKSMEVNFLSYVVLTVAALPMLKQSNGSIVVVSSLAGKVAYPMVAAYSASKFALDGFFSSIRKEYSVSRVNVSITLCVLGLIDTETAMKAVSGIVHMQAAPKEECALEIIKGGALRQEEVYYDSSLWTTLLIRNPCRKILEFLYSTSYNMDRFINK

Row | SMILES | IC50 [1] | IC50 [2] | IC50 [3] | IC50 [4]
1 | NC(C(=O)NC1C2CC3CC(C2)CC1C3)c1ccccc1 (stereo not shown) [Compound 50] | > 10 µM | 1 to 10 µM | > 10 µM | > 10 µM
2 | COc1ccc(C(C)(C)C(=O)NC2C3CC4CC(C3)CC2C4)cc1 (stereo not shown) [Compound 47] | < 1 µM | < 1 µM | > 10 µM | > 10 µM
3 | CC(C)(C(=O)NC1C2CC3CC(C2)CC1C3)c1ccsc1 (stereo not shown) [Compound 133] | > 10 µM | < 1 µM | > 10 µM | > 10 µM
4 | COc1ccc2c(c1)C(C(=O)NC1C3CC4CC(C3)CC1C4)CCC2 (stereo not shown) [Compound 203] | > 10 µM | < 1 µM | > 10 µM | > 10 µM
5 | CC(C)(C(=O)N[C@H]1[C@@H]2CC3C[C@H]1C[C@](F)(C3)C2)c1cccc(CCC(=O)O)c1 [Compound 217] | 1 to 10 µM | < 1 µM | > 10 µM | > 10 µM
6 | COc1cccc(C(C)(C)C(=O)NC2CCC3CCCC2C3)c1 (stereo not shown) [Compound 74] | < 1 µM | < 1 µM | > 10 µM | > 10 µM
7 | O=C(NC1C2CC3CC(C2)CC1C3)C1CCc2ccccc21 (stereo not shown) [Compound 197] | > 10 µM | < 1 µM | > 10 µM | > 10 µM
8 | CC(C)(C(=O)NC1C2CC3CC(C2)CC1C3)c1cccc(OCC(=O)O)c1 (stereo not shown) [Compound 6] | 1 to 10 µM | < 1 µM | > 10 µM | > 10 µM
9 | CC(C)(C(=O)NC1C2CC3CC(C2)CC1C3)c1cccc(/C=C/C(=O)OCc2ccccc2)c1 (stereo not shown) [Compound 198] | > 10 µM | < 1 µM | > 10 µM | > 10 µM
10 | CCCOc1cccc(C(C)(C)C(=O)NC2C3CC4CC(C3)CC2C4)c1 (stereo not shown) [Compound 53] | > 10 µM | < 1 µM | > 10 µM | > 10 µM
11 | O=C(NC1C2CC3CC(C2)CC1C3)C1CCc2ccccc2C1 (stereo not shown) [Compound 224] | < 1 µM | < 1 µM | > 10 µM | > 10 µM
12 | CC(C)(C(=O)NC1C2CC3CC(C2)CC1(O)C3)c1ccccc1 (stereo not shown) [Compound 91] | > 10 µM | < 1 µM | > 10 µM | > 10 µM
13 | CCCc1cccc(C(C)(C)C(=O)NC2C3CC4CC(C3)CC2C4)c1 (stereo not shown) [Compound 166] | < 1 µM | < 1 µM | > 10 µM | > 10 µM
14 | O=C(NC1C2CC3CC(C2)CC1C3)C1CCOc2ccccc21 (stereo not shown) [Compound 167] | < 1 µM | < 1 µM | > 10 µM | > 10 µM
15 | Cc1cc(C)c2c(c1)C(C(=O)NC1C3CC4CC(C3)CC1C4)=CCC2 (stereo not shown) [Compound 181] | > 10 µM | < 1 µM | > 10 µM | > 10 µM
16 | O=C(N[C@H]1[C@@H]2CC3C[C@H]1C[C@](O)(C3)C2)C1CCc2ccccc2C1 (stereo partly shown) [Compound 243] | < 1 µM | < 1 µM | > 10 µM | > 10 µM
17 | CCOC(=O)CCc1cccc(C(C)(C)C(=O)NC2C3CC4CC(C3)CC2C4)c1 (stereo not shown) [Compound 193] | < 1 µM | < 1 µM | > 10 µM | > 10 µM
18 | CC(C)(C(=O)NC1C2CC3CC(C2)CC1C3)c1cccc(C(F)(F)F)c1 (stereo not shown) [Compound 85] | > 10 µM | < 1 µM | > 10 µM | > 10 µM
19 | CC(C)(C(=O)NC1C2CC3CC(C2)CC1C3)c1cccc(F)c1 (stereo not shown) [Compound 84] | > 10 µM | < 1 µM | > 10 µM | > 10 µM
20 | Cc1cc(CCC(=O)N2CCOCC2)cc(C(C)(C)C(=O)N[C@H]2[C@@H]3CC4C[C@H]2C[C@](O)(C4)C3)c1 [Compound 248] | < 1 µM | < 1 µM | > 10 µM | > 10 µM
21 | CC(C)(C(=O)NC1C2CC3CC(C2)CC1C3)c1ccc(OCCN2CCOCC2)cc1 (stereo not shown) [Compound 73] | > 10 µM | < 1 µM | > 10 µM | > 10 µM
22 | Cc1cc(CCC(=O)N2CCOCC2)cc(C(C)(C)C(=O)N[C@H]2[C@@H]3CC4C[C@H]2C[C@](F)(C4)C3)c1 [Compound 251] | < 1 µM | < 1 µM | > 10 µM | > 10 µM
23 | COC(C(=O)NC1C2CC3CC(C2)CC1C3)c1ccccc1 (stereo not shown) [Compound 43] | < 1 µM | 1 to 10 µM | > 10 µM | > 10 µM
24 | Cc1cc(CCC(=O)O)cc(C(C)(C)C(=O)N[C@H]2[C@@H]3CC4C[C@H]2C[C@](F)(C4)C3)c1 [Compound 254] | > 10 µM | < 1 µM | > 10 µM | > 10 µM
25 | O=C(NC1C2CC3CC(C2)CC1C3)C1=CCOc2ccccc21 (stereo not shown) [Compound 162] | < 1 µM | < 1 µM | > 10 µM | > 10 µM

Source: US7968601B2, “Adamantyl acetamides as 11-β hydroxysteroid dehydrogenase inhibitors” (Janssen Pharmaceutica N.V., priority 2002, dated 2011)
